Test [1] has as its system WB-F344 rat liver epithelial cells. As to the kind of experiment: Gap junctional communication assay (Lucifer Yellow dye transfer). Format: cell-based. To be noted: for stimulation of GJIC, fold of control: 24 h of exposure. Here is the method: WB-F344 rat liver epithelial cells (kindly provided by Dr. Trosko, East Lansing, Mich.) were grown in Dulbecco's modification of Eagle's Medium (DMEM) supplemented with 10% fetal calf serum (FCS), 2 mM L-glutamine and penicillin/streptomycin in 35 mm plastic dishes. Cells were incubated at 37° C. in a humidified atmosphere containing 5% CO2. The confluent cells were incubated with DMEM (without FCS) for 24 h to decrease the basal level of cell-cell communication. (−)-Epicatechin, genistein (Sigma) or TPA were dissolved in DMSO and added to the medium; controls received DMSO only. The final concentration of DMSO in the medium was 0.2%. The epicatechin dimer was prepared as described in Adamson et al. (“HPLC Method for the Quantification of Procyanidins in Cocoa and Chocolate Samples and Correlation to Total Antioxidant Capacity” J. Ag. Food Chem., Vol. 7:10, 4184-4188), the relevant portion of which is hereby incorporated herein by reference.
Cells were treated with (−)-epicatechin (4 to 40 μM) and genistein (40 μM) for 24 and 72 h and GJIC was determined. […] GJIC was measured by microinjection of the fluorescent dye Lucifer Yellow CH (10% in 0.33 M LiCl) into selected cells by means of a micromanipulator and a microinjector system (Eppendorf). One min after injection, the number of fluorescent cells around a single cell which was loaded with the dye were counted. Ten individual cells were injected per dish and means of the number of fluorescent neighboring cells were calculated. Images were taken with a Zeiss axiovert fluorescent microscope coupled to a CCD camera (ORCA II, Hamamatsu).

In test [2] the test system is connexin43. Description: Immunofluorescence analysis of the subcellular distribution of connexin43. Format: cell-based, rat. To be noted: 90 min. How it is done:
For immunohistochemistry, WB-F344 cells were grown in complete medium with FCS on coverslips in 35 mm plastic dishes until they reached 90% confluence. The cells were incubated for 90 min with 1, 5, or 10 nM TPA, 40 μM (−)-epicatechin or 40 μM genistein or a combination of 40 μM (−)-epicatechin and (1, 5, 10 nM) TPA or 40 μM genistein and (1, 5, 10 nM) TPA; DMSO (0.2%) was used as a control. After treatment, cells were washed with PBS and fixed with methanol for 10 min at −20° C. After further washing with PBS, non-specific binding sites were blocked with 3% normal goat serum (NGS) in PBS containing 0.3% (v/v) Triton-X-100 for 45 min at room temperature. Cells were incubated with a polyclonal anti-Cx 43 antibody (Zymed); diluted 1:1500 in PBS with 1% (v/v) NGS overnight at 4° C. Cells were washed with PBS, and incubated with an Alexa 546-coupled goat anti-rabbit Ig G (H+L) secondary antibody (Molecular Probes; diluted to 1:800 in PBS) for 45 min at 37° C. After washing and embedding, images were taken with a Zeiss axiovert fluorescent microscope coupled to a CCD camera (ORCA II, Hamamatsu).

Test [3] concerns cultured human umbilical vein endothelial cells. The note with it: cited from earlier work.
[4] abbreviates: Rattus norvegicus, WB-F344, 40 μM, 72 h, read-out: GJIC % of Control.

SMILES strings stand for the structures.

As for `Oc1cc(O)c2c(c1)O[C@H](c1ccc(O)c(O)c1)[C@H](O)C2` [(−)-Epicatechin], the “communication, fold above solvent control” value in test [1] (4 μM (lowest concentration)) turned out to be 1.6 fold. The “Number of communicating cells” value was found to be 18.1 ± 2.2 cells in test [1] (4 μM, 72 h); 20.1 ± 6.8 cells in test [1] (10 μM, 72 h); 24.2 ± 3.1 cells in test [1] (40 μM, 72 h). The “GJIC (% control)” value in test [1] (40 μM plus TPA 0.1 nM, 90 min) is 95 ± 14 % control; in test [1] (40 μM plus TPA 1 nM, 90 min), 95 ± 19 % control; in test [1] (40 μM plus TPA 5 nM, 90 min), 61 ± 15 % control; in test [1] (40 μM plus TPA 10 nM, 90 min), 50 ± 16 % control. In addition, the “stimulation of GJIC, fold of control” value in test [1] (40 μM) is reported as 1.5 fold. Moreover, the “increase of GJIC, fold above controls” value in test [1] (40 μM, 72 h incubation) is given as 2.1 fold. Besides, the activity at 4 µM in test [1] (Rattus norvegicus, WB-F344, 4 μM, 72 h, read-out: GJIC % of Control) was 156 ± 18%. Besides, in test [1] (Rattus norvegicus, WB-F344, 10 μM, 72 h, read-out: GJIC % of Control), the activity at 10 µM amounted to 173 ± 56%. In addition, the activity at 40 µM in test [1] (setting [4]) amounted to 209 ± 26%.

As to `O=c1c(-c2ccc(O)cc2)coc2cc(O)cc(O)c12` [Genistein, genistein], in test [1] (40 μM coincubated with TPA 5 and 10 nM, 90 min), the “counteraction of complete loss of GJIC by TPA” value is “partially counteracted”. Moreover, the “GJIC (% control)” value in test [1] (40 μM plus TPA 1 nM, 90 min) came to 90 ± 23 % control; in test [1] (40 μM plus TPA 5 nM, 90 min), 83 ± 18 % control; in test [1] (40 μM plus TPA 10 nM, 90 min) it was 72 ± 17 % control. Moreover, in test [1] (40 μM with 1 nM TPA, 90 min), the “GJIC when applied together with TPA” value is “restored GJIC to basal levels”. For the same compound, the “stimulation of GJIC, fold of control” value in test [1] (40 μM) is reported as 2.1 fold. Further, the “Number of communicating cells” value in test [1] (40 μM, 72 h) is 35.4 ± 2.4 cells. Moreover, in test [1] (40 μM, 72 h incubation), the “increase of GJIC, fold above controls” value is 2.9 fold. Besides, the activity at 40 µM in test [1] (setting [4]) amounted to 293 ± 20%. In test [2] (40 μM plus TPA 10 nM), the “TPA effect on Cx43 distribution” value was “attenuated”. In addition, in test [3], the “levels that affect GJIC in cell culture” value is on record as “above 10 μM”.

Take `CCCCCCCCCCCCCC(=O)O[C@@H]1[C@@H](C)[C@@]2(O)[C@@H](C=C(CO)C[C@]3(O)C(=O)C(C)=C[C@@H]23)[C@H]2C(C)(C)[C@]12OC(C)=O` [TPA]: the “effect on GJIC” value in test [1] (0.1 nM TPA, 90 min) was “No effect”; in test [1] (TPA, 72 h incubation), “no effect”. In test [1] (1 nM TPA, 90 min), the “GJIC diminished by” value is reported as “about 40%”. Further, the “GJIC (% control)” value in test [1] (TPA 0.1 nM alone, 90 min) was found to be 94 ± 14 % control; in test [1] (TPA 1 nM alone, 90 min), 55 ± 19 % control; in test [1] (TPA 5 nM alone, 90 min) it was 0 % control; in test [1] (TPA 10 nM alone, 90 min), 0 % control. Besides, the intercellular communication entry in test [1] (TPA alone 5 and 10 nM, 90 min) is reported as “completely disrupted”. The “signal of membrane-associated Cx43” value in test [2] (TPA 10 nM) was “decreased dramatically”.
